In general, IC50 refers to the concentration that gives 50% inhibition.

Where only a bound is given, the exact number is not on record here.

From patent US8835429B2, “Pyrimidine compounds, their use as mTOR kinase and Pl3 kinase inhibitors, and their syntheses” (Wyeth LLC, priority 2009, dated 2014) come the findings set out here.

Test [1] relates to MDA468. The experiment in a line: In vitro cell growth assay (MTS), MDA468. In kind it is cell-based. Conditions: 72 h, human breast line MDA468, three days after drug treatment, read-out: MDA IC50. Here is the method:
(§1) The cell lines used were human prostate lines LNCap and PC3MM2, human breast lines MDA468 and MCF7, human renal line HTB44 (A498), human colon line HCT116, and human ovarian line OVCAR3. Cells were plated in 96-well culture plates. One day following plating, the inhibitors were added to cells. Three days after drug treatment, viable cell densities were determined by metabolic conversion (by viable cells) of the dye MTS, a well-established cell proliferation assay. The assays were performed using an assay kit purchased from Promega Corp. (Madison, Wis.) following the protocol supplied with the kit. The MTS assay results were read in a 96-well plate reader by measuring absorbance at 490 nm. The effect of each treatment was calculated as percent of control growth relative to the vehicle-treated cells grown in the same culture plate.

For test [2], the target named is mTOR (Homo sapiens, UniProt P42345). The experiment in a line: mTOR enzyme assay (DELFIA, purified FLAG-TOR, His6-S6K substrate). Also on record: FLAG. In kind it is biochemical. Conditions: 100 μM ATP, 2 hours.
The target in test [3] is PI3K-alpha (Homo sapiens, UniProt P42336). In words: PI3K-alpha fluorescence polarization assay. The class given is biochemical. Particulars: 20 μM PIP2, 25 μM ATP; read-out: PI3Kα IC50. Here is the method: The reaction buffer was 20 mM HEPES, pH 7.5, 2 mM MgCl2, 0.05% CHAPS; and 0.01% βME (added fresh). The stop/detection buffer was 100 mM HEPES, pH 7.5, 4 mM EDTA, 0.05% CHAPS; ATP 20 mM in water; PIP2 (diC8, Echelon, Salt Lake City Utah cat #P-4508) 1 mM in water (MW=856.5). The GST-GRP was 1.75 mg/mL or 1.4 mg/mL in 10% glycerol. The red detector (TAMRA) was 2.5 μM. Nunc 384-well black polypropylene fluorescent plates were used for PI3K assays.
The assay is run by placing 5 μL of diluted enzyme per well, then 5 μL of diluted compound (or 9.5 μL enzyme then 0.5 μL compound in DMSO) is added and mixed. Then, 10 μL substrate is added to start the reaction. The samples are incubated 30-60 minutes, then the reaction is stopped by adding 20 μL stop/detector mix. PI3K is diluted with reaction buffer (e.g., 5 μL or 7.5 μL PI3K into 620 μL reaction buffer), and 5 μL of diluted enzyme is used per well. A 5 μL portion of reaction buffer or of drug diluted in buffer (e.g., 4 μL/100 so final DMSO is 1% in reaction) is added to each. Pipetting up and down mixes the samples. Alternatively, the enzyme can be diluted to 1215 μL. In this case 9.8 μL is added per well and 0.2 μL compound is added in DMSO.
To prepare 1 mL of substrate solution, 955 μL reaction buffer, 40 μL PIP2, and 2.5 μL ATP are mixed. 10 μL of substrate is added to each well to start the reaction. […] The stop/detector mix is prepared by mixing 4 μL red detector and 1.6 μL or 2.0 μL GST-GRP with 1 mL stop buffer, which results in 10 nM probe and 70 nM GST-GRP. 20 μL of the stop/detector mix is added to each well to stop the reaction. The plates are read after 30-90 minutes keeping the red probe solutions dark. For the zero time point, stop/detector mix is added to the enzyme just before adding substrate. For an extra control, stop/detector mix is added to buffer (no enzyme) and substrate or to just buffer (no substrate). […] The recommended reaction has 0.06 μL per 20 μL (0.015 μg/20 μL) or 0.01125 μg/15 μL or 0.75 μg/mL.
Plates are read on machines with filters for TAMRA. The units are mP with no enzyme controls reading app 190-220 mP units. Fully active enzyme reduces fluorescence polarization down to 70-100 mP after 30 minutes. An active compound raises the mP values halfway to control or to 120-150 mP units.
(Fluorescence polarisation rises when a labelled molecule tumbles more slowly, as on binding a larger partner.)

The subject of test [4] is LNCap. The experiment in a line: In vitro cell growth assay (MTS), LNCap. In kind it is cell-based. Particulars: LNCaP, 72 h, human prostate line, three days after drug treatment. Here is the method:
as §1

mTOR, sequence (P42345 1360-2549 limits assumed): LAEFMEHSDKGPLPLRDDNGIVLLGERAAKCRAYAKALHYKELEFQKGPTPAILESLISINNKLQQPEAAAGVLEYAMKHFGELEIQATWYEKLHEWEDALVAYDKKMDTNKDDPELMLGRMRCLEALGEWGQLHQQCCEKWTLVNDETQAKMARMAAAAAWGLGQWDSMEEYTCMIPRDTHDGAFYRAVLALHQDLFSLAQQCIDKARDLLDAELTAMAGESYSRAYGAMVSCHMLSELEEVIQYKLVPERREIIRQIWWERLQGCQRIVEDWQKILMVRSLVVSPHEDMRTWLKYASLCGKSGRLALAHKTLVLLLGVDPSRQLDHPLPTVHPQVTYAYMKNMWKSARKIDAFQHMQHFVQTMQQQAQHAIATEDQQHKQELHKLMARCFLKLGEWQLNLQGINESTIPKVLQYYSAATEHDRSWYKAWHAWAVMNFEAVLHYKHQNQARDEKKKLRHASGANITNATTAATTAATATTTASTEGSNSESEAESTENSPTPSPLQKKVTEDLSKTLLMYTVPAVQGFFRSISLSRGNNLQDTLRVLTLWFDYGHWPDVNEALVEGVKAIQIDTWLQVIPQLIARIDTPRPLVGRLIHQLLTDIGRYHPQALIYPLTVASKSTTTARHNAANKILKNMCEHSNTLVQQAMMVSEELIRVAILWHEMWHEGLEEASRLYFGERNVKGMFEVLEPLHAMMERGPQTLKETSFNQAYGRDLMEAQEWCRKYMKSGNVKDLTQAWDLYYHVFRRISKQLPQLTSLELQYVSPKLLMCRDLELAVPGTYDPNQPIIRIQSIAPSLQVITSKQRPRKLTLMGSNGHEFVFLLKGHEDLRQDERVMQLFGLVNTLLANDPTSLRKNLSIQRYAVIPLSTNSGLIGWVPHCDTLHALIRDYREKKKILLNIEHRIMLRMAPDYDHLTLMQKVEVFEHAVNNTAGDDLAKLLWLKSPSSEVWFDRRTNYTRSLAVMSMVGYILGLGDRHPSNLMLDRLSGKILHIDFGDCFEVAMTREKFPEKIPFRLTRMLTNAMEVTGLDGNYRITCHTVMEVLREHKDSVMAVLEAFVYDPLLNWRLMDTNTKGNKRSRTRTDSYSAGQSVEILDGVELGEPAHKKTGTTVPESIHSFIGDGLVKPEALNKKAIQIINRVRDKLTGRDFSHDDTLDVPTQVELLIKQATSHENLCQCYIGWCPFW
PI3K-alpha, sequence (P42336 whole entry, species assumed): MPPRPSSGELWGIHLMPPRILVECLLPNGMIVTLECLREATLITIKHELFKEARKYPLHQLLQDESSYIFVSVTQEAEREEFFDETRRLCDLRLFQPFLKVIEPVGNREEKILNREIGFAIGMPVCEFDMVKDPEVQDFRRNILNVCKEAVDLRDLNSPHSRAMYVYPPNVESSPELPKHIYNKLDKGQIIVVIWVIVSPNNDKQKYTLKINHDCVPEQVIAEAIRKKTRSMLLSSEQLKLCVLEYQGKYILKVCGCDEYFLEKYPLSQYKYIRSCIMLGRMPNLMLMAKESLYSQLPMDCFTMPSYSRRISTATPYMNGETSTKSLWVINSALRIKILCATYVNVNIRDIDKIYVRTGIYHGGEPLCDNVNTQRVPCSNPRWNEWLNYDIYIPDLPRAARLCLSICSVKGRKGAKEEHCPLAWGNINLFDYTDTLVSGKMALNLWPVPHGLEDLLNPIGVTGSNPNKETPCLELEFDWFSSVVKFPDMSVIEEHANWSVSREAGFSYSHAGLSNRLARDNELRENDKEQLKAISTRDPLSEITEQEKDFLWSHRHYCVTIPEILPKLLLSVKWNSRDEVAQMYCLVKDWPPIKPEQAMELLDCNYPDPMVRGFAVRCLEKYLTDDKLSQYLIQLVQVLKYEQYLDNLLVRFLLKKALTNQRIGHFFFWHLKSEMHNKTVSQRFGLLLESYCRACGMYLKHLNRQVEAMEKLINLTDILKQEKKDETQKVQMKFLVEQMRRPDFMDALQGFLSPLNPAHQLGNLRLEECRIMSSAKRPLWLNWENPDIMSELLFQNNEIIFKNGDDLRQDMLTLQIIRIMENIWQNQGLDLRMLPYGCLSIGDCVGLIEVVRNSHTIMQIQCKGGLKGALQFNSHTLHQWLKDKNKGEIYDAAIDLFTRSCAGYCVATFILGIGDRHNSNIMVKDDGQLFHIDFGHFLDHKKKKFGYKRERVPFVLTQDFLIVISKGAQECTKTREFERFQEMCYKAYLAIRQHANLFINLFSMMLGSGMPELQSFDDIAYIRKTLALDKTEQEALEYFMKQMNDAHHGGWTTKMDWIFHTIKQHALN
PI3K-alpha, sequence (P27986 whole entry partner, species assumed): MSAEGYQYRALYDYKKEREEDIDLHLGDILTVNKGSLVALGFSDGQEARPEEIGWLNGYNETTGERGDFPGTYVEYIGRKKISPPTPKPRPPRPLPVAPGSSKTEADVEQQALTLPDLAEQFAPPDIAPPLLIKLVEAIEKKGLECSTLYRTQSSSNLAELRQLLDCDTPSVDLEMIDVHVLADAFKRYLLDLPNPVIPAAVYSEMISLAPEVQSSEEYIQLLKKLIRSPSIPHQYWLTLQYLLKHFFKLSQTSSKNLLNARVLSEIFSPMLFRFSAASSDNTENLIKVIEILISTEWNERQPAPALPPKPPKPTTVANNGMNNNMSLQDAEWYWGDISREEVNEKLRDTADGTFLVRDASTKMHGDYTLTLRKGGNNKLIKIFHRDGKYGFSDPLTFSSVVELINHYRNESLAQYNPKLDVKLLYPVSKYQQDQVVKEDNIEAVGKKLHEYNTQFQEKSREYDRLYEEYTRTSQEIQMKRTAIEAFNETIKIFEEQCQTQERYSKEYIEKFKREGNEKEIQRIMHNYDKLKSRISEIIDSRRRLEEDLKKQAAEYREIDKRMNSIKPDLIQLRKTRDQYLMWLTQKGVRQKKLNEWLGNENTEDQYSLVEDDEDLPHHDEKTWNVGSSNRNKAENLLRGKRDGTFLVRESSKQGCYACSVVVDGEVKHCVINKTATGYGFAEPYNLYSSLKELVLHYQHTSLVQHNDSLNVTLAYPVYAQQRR

Take `CS(=O)(=O)Cc1cc(N2CC3CCC(C2)O3)nc(-c2ccc(NC(=O)Nc3cccnc3)cc2)n1` [1-(4-{4-[(methylsulfonyl)methyl]-6-(8-oxa-3-azabicyclo[3.2.1]oct-3-yl)pyrimidin-2-yl}phenyl)-3-pyridin-3-ylurea]: the IC50 in test [1] is 0.17 µM; in test [2] it was 0.00102 µM; in test [3], 0.341 µM; in test [4] it was 0.195 µM.
For `O=C(Nc1ccc(-c2nc(-c3ccccc3)cc(N3CC4CCC(C3)O4)n2)cc1)OCCO` [2-hydroxyethyl {4-[4-(8-oxa-3-azabicyclo[3.2.1]oct-3-yl)-6-phenylpyrimidin-2-yl]phenyl}carbamate] the same measures were 5.5 µM, 0.0215 µM, 0.452 µM and 0.6 µM.
For `O=C(Nc1ccncc1)Nc1ccc(-c2nccc(N3CC4CCC(C3)O4)n2)cc1` [1-{4-[4-(8-oxa-3-azabicyclo[3.2.1]oct-3-yl)pyrimidin-2-yl]phenyl}-3-pyridin-4-ylurea] the same measures were 0.65 µM, 0.0145 µM, 0.224 µM and 0.18 µM.
Turning to `O=C(Nc1ccc(-c2cc(N3CC4CCC(C3)O4)nc(-c3ccc(NC(=O)OCCO)cc3)n2)cc1)OCCO` [bis(2-hydroxyethyl) {[6-(8-oxa-3-azabicyclo[3.2.1]oct-3-yl)pyrimidine-2,4-diyl]di-4,1-phenylene}biscarbamate], the IC50 in test [1] amounted to 1.6 µM; in test [2], 0.0094 µM; in test [3], 5 µM; in test [4] it was 0.24 µM.
For the molecule `CN1CCN(C(=O)c2ccc(NC(=O)Nc3ccc(-c4nc(N5C6CCC5COC6)cc(N5C6CCC5COC6)n4)cc3)cc2)CC1` [1-[4-(4,6-di-3-oxa-8-azabicyclo[3.2.1]oct-8-ylpyrimidin-2-yl)phenyl]-3-{4-[(4-methylpiperazin-1-yl)carbonyl]phenyl}urea], the IC50 in test [1] was 0.0008 µM; in test [2], 0.00094 µM; in test [3], 0.129 µM; in test [4], at most 0.0008 µM.
For `CN1CCN(c2ccc(NC(=O)Nc3ccc(-c4nc(N5C6CCC5COC6)cc(N5C6CCC5COC6)n4)cc3)cc2)CC1` [1-[4-(4,6-di-3-oxa-8-azabicyclo[3.2.1]oct-8-ylpyrimidin-2-yl)phenyl]-3-[4-(4-methylpiperazin-1-yl)phenyl]urea], the IC50 in test [1] was 0.0008 µM; in test [2] it was 0.0017 µM; in test [3], 1.14 µM; in test [4] it was at most 0.0008 µM.
As for `O=C(Nc1ccncc1)Nc1ccc(-c2cc(N3CC4CCC(C3)O4)nc(-c3ccc(NC(=O)Nc4ccncc4)cc3)n2)cc1` [N,N″-{[6-(8-oxa-3-azabicyclo[3.2.1]oct-3-yl)pyrimidine-2,4-diyl]di-4,1-phenylene}bis(3-pyridin-4-ylurea)], the 50% inhibitory concentration (IC50) in test [1] was found to be 0.78 µM; in test [2], 0.0032 µM; in test [3], 0.0695 µM; in test [4], 0.22 µM.
Turning to `CCN(C(=O)Nc1ccncc1)c1ccc(-c2nc(N3CC4CCC(C3)O4)cc(N3CC4CCC(C3)O4)n2)cc1` [1-[4-(4,6-di-8-oxa-3-azabicyclo[3.2.1]oct-3-ylpyrimidin-2-yl)phenyl]-1-ethyl-3-pyridin-4-ylurea], the IC50 in test [1] stood at 20 µM; in test [2], 0.2 µM; in test [3], 2.26 µM; in test [4], 5.8 µM.
`CN1CCN(c2ccc(NC(=O)Nc3ccc(-c4nc(N5CC6CCC(C5)O6)cc(N5CC6CCC(C5)O6)n4)cc3)cc2)CC1` [1-[4-(4,6-di-8-oxa-3-azabicyclo[3.2.1]oct-3-ylpyrimidin-2-yl)phenyl]-3-[4-(4-methylpiperazin-1-yl)phenyl]urea]: the IC50 in test [1] turned out to be 0.019 µM; in test [2] it was 0.00255 µM; in test [3], 0.329 µM; in test [4] it was 0.0024 µM.
In the case of `CN(Cc1ccc(NC(=O)Nc2ccc(-c3nc(CS(C)(=O)=O)cc(N4CC5CCC(C4)O5)n3)cc2)cc1)C(=O)OC(C)(C)C` [tert-butyl methyl(4-{[(4-{4-[(methylsulfonyl)methyl]-6-(8-oxa-3-azabicyclo[3.2.1]oct-3-yl)pyrimidin-2-yl}phenyl)carbamoyl]amino}benzyl)carbamate], the IC50 amounted to 0.47 µM in test [1], 0.03 µM in test [2], 1.93 µM in test [3] and 0.21 µM in test [4].
With `CN(C)CCOc1ccc(NC(=O)Nc2ccc(-c3nc(CS(C)(=O)=O)cc(N4CC5CCC(C4)O5)n3)cc2)cc1` [1-{4-[2-(dimethylamino)ethoxy]phenyl}-3-(4-{4-[(methylsulfonyl)methyl]-6-(8-oxa-3-azabicyclo[3.2.1]oct-3-yl)pyrimidin-2-yl}phenyl)urea], the IC50 in test [1] stood at 0.165 µM; in test [2], 0.005 µM; in test [3], 0.405 µM; in test [4], 0.09 µM.
For the molecule `CN1CCN(c2ccc(NC(=O)Nc3ccc(-c4nc(-c5ccccc5)cc(N5CC6CCC(C5)O6)n4)cc3)cc2)CC1` [1-[4-(4-methylpiperazin-1-yl)phenyl]-3-{4-[4-(8-oxa-3-azabicyclo[3.2.1]oct-3-yl)-6-phenylpyrimidin-2-yl]phenyl}urea], the IC50 is 0.27 µM in test [1], 0.0175 µM in test [2], 2.43 µM in test [3] and 0.078 µM in test [4].
On to `CC(C)Nc1cc(N2CC3CCC(C2)O3)nc(-c2ccc(NC(=O)Nc3ccc(N4CCN(C)CC4)cc3)cc2)n1` [1-(4-{4-[(1-methylethyl)amino]-6-(8-oxa-3-azabicyclo[3.2.1]oct-3-yl)pyrimidin-2-yl}phenyl)-3-[4-(4-methylpiperazin-1-yl)phenyl]urea], for which the IC50 amounted to 0.05 µM in test [1], 0.00417 µM in test [2], 0.211 µM in test [3] and 0.0134 µM in test [4].
Regarding `O=C(Nc1ccncc1)Nc1ccc(-c2cc(N3CC4CCC(C3)O4)nc(N3CC4CCC(C3)O4)n2)cc1` [1-[4-(2,6-di-8-oxa-3-azabicyclo[3.2.1]oct-3-ylpyrimidin-4-yl)phenyl]-3-pyridin-4-ylurea], the IC50 in test [1] came out at 0.38 µM; in test [2], 0.00245 µM; in test [3], 0.137 µM; in test [4], 0.13 µM.
For `CNC(=O)Nc1ccc(-c2nc(NC(C)C)cc(N3CC4CCC(C3)O4)n2)cc1` [1-methyl-3-(4-{4-[(1-methylethyl)amino]-6-(8-oxa-3-azabicyclo[3.2.1]oct-3-yl)pyrimidin-2-yl}phenyl)urea], the IC50 was determined as 2.1 µM in test [1], 0.012 µM in test [2], 0.81 µM in test [3] and 0.5 µM in test [4].
As for `CNC(=O)Nc1ccc(-c2nc(OC(C)C)cc(N3CC4CCC(C3)O4)n2)cc1` [1-methyl-3-{4-[4-(1-methylethoxy)-6-(8-oxa-3-azabicyclo[3.2.1]oct-3-yl)pyrimidin-2-yl]phenyl}urea], the IC50 in test [1] was 0.89 µM; in test [2] it was 0.003 µM; in test [3], 0.7 µM; in test [4], 0.19 µM.
`CN(C)CCOc1ccc(NC(=O)Nc2ccc(-c3nc(-c4ccccc4)cc(N4CC5CCC(C4)O5)n3)cc2)cc1` [1-{4-[2-(dimethylamino)ethoxy]phenyl}-3-{4-[4-(8-oxa-3-azabicyclo[3.2.1]oct-3-yl)-6-phenylpyrimidin-2-yl]phenyl}urea]: the IC50 is 0.3 µM in test [1], 0.019 µM in test [2], 0.141 µM in test [3] and 0.12 µM in test [4].
